Source: patent US20170319611A1, “METHODS AND COMPOSITIONS COMPRISING AKT INHIBITORS AND/OR PHOSPHOLIPASE D INHIBITORS” (Vanderbilt University, priority 2012, published 2017)

Tests used:
LC3 and p62 = assay: Autophagy marker immunoblot (LC3-II, p62), U87MG cells; type: cell-based, human; conditions: for accumulation of LC3-II in the presence of bafilomycin A1: 10 nM bafilomycin A1 30 min, then inhibitor 6 h; for LC3-II levels relative to vehicle control: serum-free DMEM, 10 nM bafilomycin A1, 10 μM EVJ, 5 μM JWJ or 10 μM MK2206 for 6 h
Description: Lysates were prepared by incubating cell pellets in lysis buffer (see immunoprecipitation procedure) for 30 minutes at 4° C. Protein concentrations were measuring using the Bio-Rad protein assay reagent. The antibodies used in the various studies as described herein, along with their vendors and catalog numbers are provided in Table 3.
In addition to apoptosis, cells undergo another type of programmed cell death requiring autophagy (Tsujimoto and Shimizu, (2005) Cell Death Differ. 12 Suppl 2, 1528-1534), a process known to be stimulated by nutrient or growth factor deprivation (Kroemer, G. et al., (2010) Mol. Cell 40, 280-293). Autophagy is a multistep process involving formation of double-membrane autophagosomes that engulf cytosolic components and deliver cargo to lysosomes for digestion and nutrient recycling (Ravikumar, B. et al., (2009) J. Cell Sci. 122, 1707-1711). In order to determine if autophagy was perturbed following PLD or Akt inhibitor (MK2206) (Hirai, H. et al., (2010) Mol. Cancer Ther. 9, 1956-1967) treatment, the expression levels of the well-characterized autophagy makers microtubule-associated protein 1A/1B-light chain 3 (LC3) and p62 were measured. Autophagasome number is frequently assessed by measuring conversion of cytosolic LC3-I to a membrane-associated, lipidated LC3-II which is readily measureable as a faster migrating species of LC3 during SDS-PAGE (Kabeya, Y. et al., (2000) EMBO J. 19, 5720-5728). The other marker, p62, is an LC3 and ubiquitin-binding protein, involved in the regulation of protein aggregates and is degraded by autophagy (Komatsu, M. et al., (2005) J. Cell Biol. 169, 425-434). Induction of autophagy and successful degradation of autophagosomes would thus be accompanied by a decrease in p62 levels. […] Fold change in immunoreactivity relative to vehicle control. ANOVA with Dunnett's post-hoc test was used to compare inhibitor treatment to vehicle control (**p<0.01).
To conclusively determine that flux, rather than autophagosome initiation, is regulated by PLC, LC3-II conversion in the presence of the lysosomal proton pump inhibitor bafilomycin A1, which prevents autophagosome fusion to lysosomes and inhibits degradation of autophagosomes, was measured. Thus, bafilomycin A1 is commonly used to discriminate the effects of a compound on autophagy initiation versus flux by assessing LC3-II levels in the presence of a test compound after clamping degradation of autophagosomes (Yamamoto, A. et al., (1998) Cell Struct. Funct. 23, 33-42).

PLD2-Akt interaction = molecular target: T1, PLD2-Akt interaction (Homo sapiens, UniProt P31749); assay: In vitro protein-protein interaction assay, purified PLD2 and Akt; type: binding; conditions: purified proteins, 10 μM inhibitor in reaction mixture
T1 construct: 6xHis (N); made in house; host or cells: Sf21 insect cells (baculovirus)
Description: 25 nM PLD2-PtS or PtS tag were incubated with 50 nM 6×His-Aktl for 2 h in 50 mM Tris pH 8.0, 0.01% Nonidet P-40, 150 mM NaCl, 0.5 mM EDTA, and 50 mg/mL avidin. Where indicated, 10 μM inhibitor was included in the reaction mixture. PtS-tagged proteins were captured by incubation with strep-tactin resin for 2 h.
Although proteins may co-IP from cell lysate, determining whether proteins form a direct interaction requires binding experiments with purified proteins. As described herein, recombinant Akt and PLD2 was then expressed and purified from Sf21 insect cells (FIG. 8C). […] Numbers indicate molecular weights in kilodaltons. […] Since PLD2 and Akt appear to interact directly, the PLD inhibitors were evaluated to determine whether they disrupted the protein-protein interaction as a potential mechanism by which PLD2 regulates activation of Akt in cells. As described herein, purified PLD2 and Akt were incubated in the presence of EVJ, JWJ, or the allosteric pan-Akt inhibitor, MK2206 (Hirai, H. et al., (2010) Mol. Cancer Ther. 9, 1956-1967) and proteins captured using affinity resin. […] Referring to FIG. 9B, the same procedure was used as in 9A, except 10 μM EVJ, JWJ, or Akt inhibitor MK2206 was included in the reaction mixture.

AMPK = AMPK activation immunoblot, U87MG cells; type: cell-based, human; conditions: for AMPK activation (phosphorylation of threonine 172) / phosphorylation of acetyl-coA carboxylase (serine 79): 24 hours, 10 mM EVJ or 5 mM JWJ
Description: Another well-known regulator of autophagy is the adenosine monophosphate-activated protein kinase (AMPK). Changes in intracellular energy balance or metabolic stress are known to activate AMPK (Hardie, D. G. (2007) Nat. Rev. Mol. Cell Bio. 8, 774-785). AMPK serves as a metabolic checkpoint, acting to restore ATP levels through regulation of metabolic enzymes and inhibition of pro-growth anabolic pathways (Hardie, D. G. (2007) Nat. Rev. Mol. Cell Bio. 8, 774-785). […] U87MG cells were treated for 24 hours with […] before lysis and immunoblotting. AMPK activation was measured by assessing phosphorylation at threonine 172 and also by measuring activation of acetyl coenzyme A carboxylase (ACC) at serine 79.
Another AMPK substrate and component of the autophagasome initiation complex is Unc-51-like kinase 1 (ULK1). Several studies (Egan, D. F. et al., (2011) Science 331, 456-461; Kim, J. et al., (2011) Nature Cell Bio. 13, 132-141) have recently identified multiple AMPK sites on ULK1 that function to enhance initiation of autophagy. […] To determine whether the induction of autophagy through AMPK activation requires Akt, Aktl was silenced and then evaluated for effects of PLD inhibition on AMPK and ULK1 phosphorylation. Aktl was chosen to silence since Aktl phosphorylation was decreased following PLD inhibition in U87MG cells. […] U87MG cells were transfected with Aktl siRNA for 72 hours prior to cell lysis. Cells were treated with […] JWJ 24 hours prior to cell lysis.

PLD = assay: Endogenous PLD activity assay (PtdBuOH) in U87MG cells; type: cell-based, human
Description: Data is presented as the ratio of the predominant phosphatidylbutanol peaks to the internal standard. To generate concentration response curves, U87MG cells were serum starved for approximately 24 hours. Cells were treated with the indicated concentration of PLD inhibitor for 15 minutes prior to addition of n-butanol containing media and phospolipid extraction.
Cells were pretreated with inhibitors 30 min prior to measurement of PLD activity. Data is presented as the percent activity remaining after PLD inhibitor treatment relative to control.

myrAktl = assay: Akt phosphorylation immunoblot, myrAktl U87MG cells; type: cell-based, human; conditions: overnight, serum-free DMEM; 10 μM EVJ or 5 μM JWJ
Description: To confirm the observed effects on autophagy and cell death following PLD inhibition in glioma cells was due to the regulation of Akt by PLD2, a stable U87MG cell line was developed to expresses a constitutively active form of Akt under the transcriptional control of the tetracycline repressor protein (Yao, F. et al., (1998) Hum. Gene Ther. 9, 1939-1950). This Akt construct contains the myristoylation sequence from Src kinase (Kohn, A. D. et al., (1996) J. Biol. Chem. 271, 31372-31378) and is constitutively membrane associated and active. Without wishing to be bound by a particular theory, if PtdOH serves to enhance membrane docking of Akt then PLD inhibition should not decrease phosphorylation of myristoylated Akt (myrAkt) since this construct bypasses lipid recruitment signals for membrane association. […] Tetracycline inducible myrAktl-expressing U87MG cells, or parental cells, were seeded into media containing 0.1 ug/ml tetracycline and protein expression induced for approximately 24 hours. […] Cells were seeded and treated as in figure A and immunoblotted for phosphorylated and total AMPK. AMPK activation was quantitated by densitometric quantification of the phospho-AMPK band over the total AMPK band. Fold changes were calculated by normalizing the DMSO condition to 1 for each cell line. […] Referring to FIG. 23B, parental or myrAktl U87MG cells were treated with the indicated inhibitors as in 23A overnight before blotting for phosphorylated and total Akt.

Akt = Akt membrane recruitment (membrane isolation), U87MG cells; type: cell-based, human; conditions: overnight 5 μM JWJ
Description: U87MG cells were seeded in 150 mm tissue culture plates at 2.6×10^6 cells/plate (4 plates per condition) and allowed to adhere overnight. The following day, cells were washed and media replaced with DMEM+indicated inhibitor or vehicle and cells were treated for up to 12 h. Cells were washed twice in 1×PBS then scraped in homogenization buffer (20 mM HEPES pH 7.4, 1 mM EDTA, 250 mM sucrose). Cells were pelleted by centrifugation at 1,000×g for 4 minutes at 4° C. […] Lysate was collected dropwise then centrifuged at 2,000×g for 10 min to pellet unbroken cells, nuclei, and heavy debris. The supernatant was subsequently centrifuged at 100,000×g for 60 min. The supernatant was saved as the cytosolic fraction and the 100,000×g pellet was washed once by resuspension in lysis buffer then centrifuged again under the same conditions.
2.5%, 10%, 17.5%, 25%, and 30% iodixanol solutions were prepared by mixing the appropriate ratios of 50% iodixanol with homogenization buffer. […]
In order to understand the mechanism by which PtdOH regulates Akt activation, it was first determined whether PtdOH and PIP3 share a binding site on Akt. […] Akt binding to PtdOH and PIP3 was then assessed using a protein-lipid overlay assay. […] Bound Akt was determined using an Akt specific antibody. […] GST-Akt PH domain fusion proteins were purified from E. coli and lipid binding was again assessed using a protein-lipid overlay.

T1 sequence (P31749 whole entry): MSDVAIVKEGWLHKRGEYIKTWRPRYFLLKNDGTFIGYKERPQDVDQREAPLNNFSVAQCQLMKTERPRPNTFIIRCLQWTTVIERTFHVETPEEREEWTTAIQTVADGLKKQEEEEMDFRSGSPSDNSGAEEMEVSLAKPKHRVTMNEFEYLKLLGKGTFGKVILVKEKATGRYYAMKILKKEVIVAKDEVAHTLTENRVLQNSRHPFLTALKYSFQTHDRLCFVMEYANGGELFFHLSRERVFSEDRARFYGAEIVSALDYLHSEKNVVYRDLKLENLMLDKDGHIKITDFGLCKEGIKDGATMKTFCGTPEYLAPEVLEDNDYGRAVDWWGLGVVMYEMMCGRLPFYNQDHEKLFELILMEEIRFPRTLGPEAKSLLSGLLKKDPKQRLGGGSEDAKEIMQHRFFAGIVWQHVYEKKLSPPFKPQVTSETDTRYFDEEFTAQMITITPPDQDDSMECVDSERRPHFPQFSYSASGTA

SMILES: NC1(c2ccc(-c3nc4ccn5c(=O)[nH]nc5c4cc3-c3ccccc3)cc2)CCC1 [MK2206]
- accumulation of LC3-II in the presence of bafilomycin A1 (LC3 and p62): no additional accumulation of LC3-II
- LC3-II levels relative to vehicle control (LC3 and p62): increased LC3-II levels relative to vehicle control
- PLD2-Akt interaction (PLD2-Akt interaction): disrupted the PLD2-Akt interaction

SMILES: C[C@@H](CN1CCC(n2c(=O)[nH]c3cc(Br)ccc32)CC1)NC(=O)[C@@H]1C[C@@H]1c1ccccc1 [No. 2, (1R,2S)—N-((S)-1-(4-(5-bromo-2-oxo-2,3-dihydro-1H-benzo[d]imidazol-1-yl)piperidin-1-yl)propan-2-yl)-2-phenylcyclopropane carboxamide]
- AMPK activation (phosphorylation of threonine 172) (AMPK): observed to increase
- phosphorylation of acetyl-coA carboxylase (serine 79) (AMPK): increased phosphorylation of acetyl-coA carboxylase
- accumulation of LC3-II in the presence of bafilomycin A1 (LC3 and p62): no additional accumulation of LC3-II
- PLD2-Akt interaction (PLD2-Akt interaction): detected even in the presence of PLD inhibitors
- IC50 (PLD; U87MG cells, serum withdrawn 24 h, inhibitor pretreatment 30 min, read-out: IC50, attenuation of PLD activity following serum-withdrawal): ~500 nM
- phosphorylated Akt in myrAktl U87MG cells (myrAktl): failed to reduce levels of phosphorylated Akt

SMILES: C[C@@H](CN1CCC(n2c(=O)[nH]c3cc(Cl)ccc32)CC1)NC(=O)c1ccc2ccccc2c1 [VU0155069, reference compound]
- PtdBuOH production (PLD; U87MG glioblastoma cells, FIG. 28B): blocks PtdBuOH production

SMILES: CO/C1=C\C(C)=C\[C@@H](C)[C@@H](O)[C@@H](C)C/C(C)=C/C=C/[C@H](OC)[C@@H]([C@@H](C)[C@@H](O)[C@H](C)[C@@]2(O)C[C@@H](O)[C@H](C)[C@@H](C(C)C)O2)OC1=O [Bafilomycin A1]
- LC3-II levels relative to vehicle control (LC3 and p62): increased LC3-II levels relative to vehicle control

SMILES: CCC(=O)N1CCN(c2ccc(-n3c(=O)ccc4cnc5ccc(-c6cnc7ccccc7c6)cc5c43)cc2C(F)(F)F)CC1 [Torinl, reference compound]
- phosphorylated Akt in myrAktl U87MG cells (myrAktl): decreased phosphorylation of myrAktl

SMILES: O=C(NCCN1CCC2(CC1)C(=O)NCN2c1cccc(F)c1)c1ccc2ccccc2c1 [No. 1, N-(2-(1-(3-fluorophenyl)-4-oxo-1,3,8-triazaspiro[4.5]decan-8-yl)ethyl)-2-naphthamide]
- AMPK activation (phosphorylation of threonine 172) (AMPK): observed to increase
- phosphorylation of acetyl-coA carboxylase (serine 79) (AMPK): increased phosphorylation of acetyl-coA carboxylase
- AMPK or ULK1 phosphorylation when Aktl is silenced (AMPK; Aktl siRNA 72 hours, 5 mM JWJ 24 hours): does not appear to increase AMPK or ULK1 phosphorylation more than DMSO control
- accumulation of LC3-II in the presence of bafilomycin A1 (LC3 and p62): no additional accumulation of LC3-II
- PLD2-Akt interaction (PLD2-Akt interaction): detected even in the presence of PLD inhibitors
- phosphorylated Akt in myrAktl U87MG cells (myrAktl): failed to reduce levels of phosphorylated Akt
- membrane recruitment of Akt (Akt): diminished
